Source: US20180002400A1, “SHORT PEPTIDE-BASED THERAPEUTIC AGENT AND MEDICINAL COMPOSITION INCLUDING THE SAME FOR INHIBITING ACTIVITIES OF CANCER CELLS” (NATIONAL CHENG KUNG UNIVERSITY, priority 2015, published 2018)

Tests used:
Assay type in all cases: cell-based, human
[1] = test system: breast cancer MB231 cell; test: Drug resistance (CDDP, 5-FU) induced by euPTX3, MTT assay; settings: MB231 only co-cultured with euPTX3 2.5 μg/mL vs without euPTX3; FIG. 1D
Experimental: (§1) The cell density 1×10^4 cells/well of the breast cancer MB231 cell, the lung cancer A549 cell and the nasopharyngeal cancer HONE1 cell were co-cultured with the short peptides RI37, GI40 and KT44 (10 μg/mL or 225 nM of the short peptide) and the polypeptide euPTX3 (2.5 μg/mL) of Example 1. After 1 week of cultivation, those cancer cells were added with 40 μM of CDDP or 100 μM of 5-FU respectively and cultured for 48 hours. Based on the cell viability of the cells only co-cultured with the polypeptide euPTX3 (2.5 μg/mL) as 100%, the influence of drug resistance of the cancer cells of Example 2 using the short peptides of Example 1 could be determined according to the aforementioned MTT assay.

[2] = test system: lung cancer A549 cell; test: as above; settings: A549 only co-cultured with euPTX3 2.5 μg/mL vs without euPTX3; FIG. 2B
Experimental: as §1

[3] = test system: nasopharyngeal cancer HONE1 cell; test: as above; settings: HONE1 only co-cultured with euPTX3 2.5 μg/mL vs without euPTX3; FIG. 3B
Experimental: as §1

[4] = test system: drug-resistant breast cancer MB231R (MBR) cells; test: Cancer cell migration (Boyden chamber) induced by euPTX3
Experimental: [The procedure below names another cell line; the source lists this cell line under the same test.] (§2) The cell density 5×10^4 cells/well of the breast cancer MB231 cell, the lung cancer A549 cell and the nasopharyngeal cancer HONE1 cell were seeded into each upper insert of 24-well plate (containing 8-μm pore insert per well; BD Biosciences) for 19 hours, and each lower well was added with the short peptides RI37, GI40 and KT44 (10 μg/mL or 225 nM of the short peptide) and the polypeptide euPTX3 (2.5 μg/mL) of Example 1, for evaluating the influence of migration of the cancer cell of Example 2 using several short peptides of Example 1.
(§3) The cell density 5×10^4 cells/well of the breast cancer MB231 cell, the lung cancer A549 cell and the nasopharyngeal cancer HONE1 cell were seeded into each upper insert of Boyden chamber for 3 hours of cultivation.
(§4) And then, the medium in each upper insert was replaced by serum-free medium, and the medium in each lower well was added with the short peptides RI37, GI40, KT44 and the polypeptide euPTX3 of Example 1. The cells inside each upper insert were wiped with cotton swabs and removed after 16 hours of cultivation. Remaining cells that had migrated to the bottom of the insert membrane were stained by 4′,6-diamidino-2-phenylindole (DAPI; Invitrogen) and calculated under fluorescence microscopy with 200-fold magnification.

[5] = test system: lung cancer A549 cell; test: as above; settings: A549 only co-cultured with euPTX3 2.5 μg/mL; FIG. 2C left panel
Experimental: as §2, §3, §4

[6] = test system: nasopharyngeal cancer HONE1 cell; test: as above; settings: HONE1 only co-cultured with euPTX3 2.5 μg/mL; FIG. 3C left panel
Experimental: as §2, §3, §4

[7] = test system: drug-resistant breast cancer MB231R (MBR) cells; test: Cancer cell invasion (matrigel-coated insert) induced by euPTX3
[8] = test system: lung cancer A549 cell; test: as above; settings: A549 only co-cultured with euPTX3 2.5 μg/mL; FIG. 2C right panel
Experimental: (§5) The cell density 5×10^4 cells/well of the breast cancer MB231 cell, the lung cancer A549 cell and the nasopharyngeal cancer HONE1 cell were seeded into each upper insert of 24-well plate (containing 8-μm pore insert per well; BD Biosciences), the upper insert and the lower well were separated by the polyethelene terephthalate membrane coated with matrigel (purchased from BD Bioscience), and cultured for 3 hours.
as §4, with “Next,” for “And then,”, “euPTX3 and pPTX3/C” for “euPTX3”, “4′, 6-diamidino-2-phenylindole” for “4′,6-diamidino-2-phenylindole”

[9] = test system: nasopharyngeal cancer HONE1 cell; test: as above; settings: HONE1 only co-cultured with euPTX3 2.5 μg/mL; FIG. 3C right panel
Experimental: as §5
as §4, with “Next,” for “And then,”, “euPTX3 and pPTX3/C” for “euPTX3”, “4′, 6-diamidino-2-phenylindole” for “4′,6-diamidino-2-phenylindole”

Molecule	drug resistance to CDDP or 5-FU (cell viability) [1]	drug resistance to CDDP or 5-FU (cell viability) [2]	drug resistance to CDDP or 5-FU (cell viability) [3]	migrated cell numbers ([4]; breast cancer cells only co-cultured with euPTX3 2.5 μg/mL, FIG. 1E, 5B left panels)	migrated cell numbers [5]	migrated cell numbers [6]	invasive cell numbers ([7]; breast cancer cells only co-cultured with euPTX3 2.5 μg/mL, FIG. 1E, 5B right panels)	invasive cell numbers [8]	invasive cell numbers [9]	migrated cell numbers induced by the polypeptide euPTX3 ([4]; MB231R (MBR), identical molecular number: euPTX3 2.5 μg/mL, RI37 3.7 μg/mL, GI40 4 μg/mL, pPTX3/C 10 μg/mL, FIG. 5B left panel)	invasive cell numbers induced by the polypeptide euPTX3 ([7]; MB231R (MBR), identical molecular number: euPTX3 2.5 μg/mL, RI37 3.7 μg/mL, GI40 4 μg/mL, pPTX3/C 10 μg/mL, FIG. 5B right panel)
euPTX3: commercially available PTX3 product (R&D system Inc.), recombinant protein purified from mouse myeloma cells (NS0)	increase drug resistance to CDDP or 5-FU	increase drug resistance to CDDP or 5-FU	increase drug resistance to CDDP or 5-FU	increase migrated cell numbers	increase migrated cell numbers	increase migrated cell numbers	increase invasive cell numbers	increase invasive cell numbers	increase invasive cell numbers		
pPTX3/C: recombinant protein (SEQ ID NO:4) expressed and purified from prokaryotic expression system (E. coli); control group (protein, The 180th amino acid to 381th amino acid of Human sapiens PTX3 (pPTX3/C), control group) ETAILFPMRSKKIFGSVHPVRPMRLESFSACIWVKATDVLNKTILFSYGTKRNPYEIQLYLSYQSIVFVVGGEENKLVAEAMVSLGRWTHLCGTWNSEEGLTSLWVNGELAATTVEMATGHIVPEGGILQIGQEKNGCCVGGGFDETLAFSGRLTGFNIWDSVLSNEEIRETGGAESCHIRGNIVGWGVTEIQPHGGAQYVS										can inhibit migrated cell numbers	can inhibit invasive cell numbers
